Experimental findings from patent US4707484A, “Substituted piperidinomethylindolone and cyclopent(b)indolone derivatives” (Hoffmann-La Roche Inc., priority 1986, dated 1987) are described below.

Counter-ions that a name gives are not always drawn. Like-named read-outs stand apart in the source and are kept apart here.

One data set relates to cisplatin-induced emesis. Description: Anti-cisplatin emesis in dogs. Type of data set: in vivo, dog (Beagle). The note with it: for effectiveness against apomorphine and cisplatin emesis (in words): dogs. The method, then: The procedure was as follows:
In the evaluation 6 male and 6 female Beagle dogs, supplied by White Eagle Laboratories, Doylestown PA., were used. Three dogs were tested daily. Each dog received either saline-placebo, 30 ml i.v.; the compound of formula If, 10 mg/kg i.v.; or domperidone 10 mg/kg i.v. The compound of formula If was dissolved in warm sterile water for injection. Domperidone was solubilized in acetic acid and the pH was adjusted with 2N NaOH. Both drugs were diluted to an infusion volume of 30 mL with sterile water. The treatments were infused over a 30-minute (n=3) or a 60-minute (n=9) period. […] The cisplatin, 1 mg/ml dissolved in sterile water, was infused over a 10 minute period. Each treatment was given to 2 male and 2 female weight-matched dogs.
The dogs were fed Wayne dog food moistened in water, 20 grams/kg, one hour prior to treatment. During the observation period the onset, frequency and severity of vomiting episodes as well as any atypical behavioral activity was recorded.
Statistical evaluation of emetic activity was done using Student's-t test for unpaired data.

In data set [1] the test system is apomorphine-induced rearing. Nature of the data set: Antagonism of apomorphine-induced rearing in mice. The note with it: for ED50: Mus musculus; for Antagonism of Apomorphine Rearing % protected at 10 mg/kg: intravenous 10 mg/kg.
Data set [2] concerns D-amphetamine hyperactivity (central nervous system dopamine receptors). Nature of the data set: Antagonism of D-amphetamine hyperactivity in mice. The note with it: Mus musculus, read-out: Antagonism of Amphetamine Hyperactivity ED50.
Another data set concerns apomorphine emesis. Description: Anti-apomorphine emesis in dogs. Type of data set: in vivo, dog (female Beagle). The note with it: Canis lupus familiaris, po; orally, 1 hour before apomorphine HCl 0.1 mg/kg s.c.; 1 hour observation; read-out: anti-emetic ED50 (apomorphine emesis). The method, then: Pure-bred female Beagle dogs (Fa. WIGA, Versuchstier-Zuchtanstalt, 8741 Sulzfeld, GFR) with an approximate body weight of 15 kg were used. All dogs were shown previously to vomit at least four times during the 60 minutes following injection of 0.1 mg/kg apomorphine .HCl s.c. into the neck. Each dog was used in 14 day intervals. Three drug sessions were followed by an apomorphine control session.
The compound of formula If was administered suspended in 5% acacia at different dose levels by oral gavage to at least 4 dogs per dose. One hour later 0.1 mg/kg apomorphine .HCl was injected s.c. and the dogs observed for a further hour for vomiting.

The target of the next data set is T1, dopamine receptors (Rattus norvegicus, UniProt P61169).
T1 construct: rat striatal brain homogenates; from tissue; host or cells: rat striatum (brain homogenate)
Description: 3H-spiroperidol binding test (rat striatal brain homogenates). The note with it: 0.2 nM 3H-spiroperidol, 20 min, read-out: Binding IC50 (inhibition of 3H-spiroperidol binding to dopamine receptors). The procedure:
Dopamine receptor antagonism by compounds of formula I in vitro is determined by the ^3 H-spiroperidol binding assay. In this test, rat striatal brain homogenates were incubated for 20 minutes in the presence of 0.2 nanomolar ^3 H-spiroperidol and varying concentrations of test compounds. The incubations were terminated by rapid filtrations through Whatman GF/B filters, followed by 2×5 mL washes with ice-cold assay buffer (50 mM tribase-HCl pH 7.7 which contains fixed concentrations of 0.1% ascorbic acid, 120 mM NaCl, 5 mM KCl, 2 mM CaCl2, and 1 mM MgCl2).

Data set [3] is described as follows: Side effect evaluation in dogs. Type of data set: in vivo, dog (beagle). The note with it: oral 1 mg/kg, then one day later 10 mg/kg; observed six hours. The procedure: For side effect liability evaluation, pure breed beagle dogs from Marshall Inc., North Rose, N.Y., were used. Prior to dosing, the dogs were fasted for approximately 18 hrs. Dosing was orally by gelatin capsule. […] Compound of formula Ia was initially administered orally at a dose of 1 mg/kg and then one day later at an oral dose of 10 mg/kg. An experienced observer monitored these dogs for six hours, following dosing.

The mark [4] stands for this setting: 10 mg/kg i.v., cisplatin 3 mg/kg i.v.
Setting [5] is: po, 2 h, read-out: Antagonism of Apomorphine rearing ED50.

Usually ED50 stands for the dose that gives a 50% effect, or the effect in half of the subjects. Usually IC50 stands for the midpoint of a concentration-inhibition curve.

T1 sequence (P61169 whole entry): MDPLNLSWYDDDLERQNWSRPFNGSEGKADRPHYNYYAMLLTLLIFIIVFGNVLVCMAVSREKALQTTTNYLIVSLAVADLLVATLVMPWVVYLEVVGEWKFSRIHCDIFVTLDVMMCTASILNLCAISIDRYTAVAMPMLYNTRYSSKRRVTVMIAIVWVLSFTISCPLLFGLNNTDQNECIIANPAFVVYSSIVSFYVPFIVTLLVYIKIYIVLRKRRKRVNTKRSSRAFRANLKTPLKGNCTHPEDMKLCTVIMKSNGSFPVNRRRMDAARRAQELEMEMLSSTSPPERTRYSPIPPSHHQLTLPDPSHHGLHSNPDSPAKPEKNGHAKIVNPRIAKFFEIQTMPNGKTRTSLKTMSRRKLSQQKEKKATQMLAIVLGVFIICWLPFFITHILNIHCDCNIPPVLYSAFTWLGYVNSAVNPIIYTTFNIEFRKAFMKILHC

As to `O=C1c2c([nH]c3c2CCC3)CCC1CN1CCC2(CC1)C(=O)NCN2c1ccccc1` (stereo not shown) [Compound If, 1,2,3,5,6,7-hexahydro-7-[(4-oxo-1-phenyl-1,3,8-triazaspiro[4.5]decan-8-yl)methyl]-4H-cyclopent[b]indol-8(8H)-one], in the data set on cisplatin-induced emesis (setting [4]), the “Vomiting episodes Mean (± S.E.) 6 Hrs” value was determined as 6.0 ± 1.8. For the same compound, the “Vomiting episodes Mean (± S.E.) 1 hr.” value in the data set on cisplatin-induced emesis (setting [4]) worked out at 1.0 ± 0.4. For the same compound, the “effectiveness against apomorphine and cisplatin emesis (in words)” value in the data set on cisplatin-induced emesis was “effective against both apomorphine and cisplatin emesis in dogs”. Also, the ED50 in data set [1] (setting [5]) was 12 mg/kg; in data set [2] (po, 1 h) it was above 100 mg/kg; in the data set on apomorphine emesis, 0.75 mg/kg. Also, the IC50 at dopamine receptors amounted to 0.35 nM.

As to `O=C1c2c([nH]c3c2CCC3)CCC1CN1CCC2(CC1)C(=O)NCN2C1CCCCC1` (stereo not shown) [Compound Ic, 8-[(1,2,3,4,5,6,7,8-octahydro-8-oxocyclopent[b]indol-7-yl)methyl]-1-cyclohexyl-1,3,8-triazaspiro[4.5]-decan-4-one], the ED50 in data set [1] (setting [5]) was above 100 mg/kg; in data set [2] (po, 1 h), above 100 mg/kg. In addition, the “Antagonism of Apomorphine Rearing % protected at 10 mg/kg” value in data set [1] (4 hr after administration) and in data set [1] (7 hr after administration) was 40% throughout. Also, at dopamine receptors, the IC50 worked out at 0.52 nM.

On to `CCc1c(C)[nH]c2c1C(=O)C(CN1CCC3(CC1)C(=O)NCN3C1CCCCC1)CC2` (stereo not shown) [Compound Ie], for which the ED50 was 98 mg/kg in data set [1] (setting [5]) and 235 mg/kg in data set [2] (po, 1 h). Moreover, the “Antagonism of Apomorphine Rearing % protected at 10 mg/kg” value in data set [1] (4 hr after administration) amounted to 62%; in data set [1] (7 hr after administration), 79%. For the same compound, at dopamine receptors, the IC50 was 0.082 nM.

Regarding `CCc1c(C)[nH]c2c1C(=O)C(CN1CCC3(CC1)C(=O)NCN3c1ccccc1)CC2` (stereo not shown) [Compound Ia, 8-[(3-ethyl-4,5,6,7-tetrahydro-2-methyl-4-oxo-1H-indol-5-yl)methyl]-1-phenyl-1,3,8-triazaspiro[4.5]-decan-4-one], the ED50 in data set [1] (iv, 2 h, read-out: Antagonism of Apomorphine Rearing ED50) is 7 mg/kg; in data set [1] (iv, 7 h, read-out: Antagonism of Apomorphine Rearing ED50) it was 2.3 mg/kg; in data set [1] (setting [5]), above 100 mg/kg; in data set [2] (iv, 2 h), 15.9 mg/kg; in data set [2] (iv, 7 h), 8.6 mg/kg; in data set [2] (po, 1 h) it was above 100 mg/kg. The IC50 at dopamine receptors was 0.095 nM. In data set [3], the “grossly observable abnormal signs (behavior, motor coordination)” value is given as “Neither dose level produced any grossly observable alteration in behavior or motor coordination nor were any other abnormal signs seen”.

For `O=c1[nH]c2ccccc2n1CCCN1CCC(n2c(=O)[nH]c3cc(Cl)ccc32)CC1` [domperidone], in the data set with cisplatin-induced emesis (setting [4]), the “emesis versus controls (in words)” value was “did not differ significantly from controls”. The “Vomiting episodes Mean (± S.E.) 6 Hrs” value in the data set with cisplatin-induced emesis (setting [4]) was 12.5 ± 2.3. In addition, the “Vomiting episodes Mean (± S.E.) 1 hr.” value in the data set on cisplatin-induced emesis (setting [4]) was found to be 2.1 ± 0.7. The “effectiveness against apomorphine and cisplatin emesis (in words)” value with cisplatin-induced emesis is “only effective against apomorphine emesis in dogs”. Further, the ED50 was found to be 23 mg/kg in data set [1] (setting [5]); 194 mg/kg in data set [2] (po, 1 h); 0.2 mg/kg in the data set on apomorphine emesis.

For `CN(C)CCCN1c2ccccc2Sc2ccc(Cl)cc21` [chloropromazine HCl, reference compound], the 50% effective dose (ED50) stood at 4.9 mg/kg in data set [1] (setting [5]) and 2.1 mg/kg in data set [2] (po, 1 h).

As for `O=C(CCCN1CCC(O)(c2ccc(Cl)cc2)CC1)c1ccc(F)cc1` [haloperidol, reference compound], the ED50 is 0.18 mg/kg in data set [1] (setting [5]) and 0.23 mg/kg in data set [2] (po, 1 h).

As for `CC1NC(=O)C2(CCN(CC3CCc4[nH]c5c(c4C3=O)CCC5)CC2)N1c1ccccc1` (stereo not shown) [Compound Ib, 8-[(1,2,3,4,5,6,7,8-octahydro-8-oxocyclopent[b]indol-7-yl)methyl]-2-methyl-1-phenyl-1,3,8-triazaspiro[4.5]-decan-4-one], the ED50 in data set [1] (setting [5]) is above 100 mg/kg; in data set [2] (po, 1 h), above 100 mg/kg. Moreover, the “Antagonism of Apomorphine Rearing % protected at 10 mg/kg” value in data set [1] (4 hr after administration) and in data set [1] (7 hr after administration) was 36% in each case. Besides, the IC50 at dopamine receptors turned out to be 0.94 nM.

Consider `Cc1[nH]c2c(c1C)C(=O)C(CN1CCC3(CC1)C(=O)NCN3c1ccccc1)CC2` (stereo not shown) [Compound Id, 8-[4,5,6,7-tetrahydro-(2,3-dimethyl-4-oxo-1H-indol-5-yl)methyl]-1-phenyl-1,3,8-triazaspiro[4.5]decan-4-one], for which the ED50 is 5.1 mg/kg in data set [1] (iv, 4 h, read-out: Antagonism of Apomorphine Rearing ED50); 12 mg/kg in data set [1] (setting [5]); above 20 mg/kg in data set [2] (iv, 4 h); 147 mg/kg in data set [2] (po, 1 h). The IC50 at dopamine receptors amounted to 0.078 nM.
